# In patent US11708283B2, “Metal-chelating compositions and their use in methods of removing or inhibiting barium scale” (CORNELL UNIVERSITY, priority 2018, dated 2023):
# How the values were obtained:
# [1] = Thermodynamic stability constants of Ca^2+ complexes by pH-potentiometry; format: binding; conditions: I = 0.1M KCl; for pCa (−log [M^2+]free): [M^2+] = 10^−6M, [L] = 10^−5M, pH 7.4; for pCa (−log [M^2+]free) / log KCaL / log KCaHL: 25° C.; for log K′Ca (conditional stability constant): pH 7.4, 25° C., calculated from protonation and stability constants; for log KCaL / log KCaHL: pH-potentiometry
# Experimental: (§1) Potentiometric measurements were carried out using a titrator equipped with a combination electrode and an exchange unit with an automatic burette (10 mL). The titration vessel was fitted with a removable glass cell (˜70 mL) and was thermostated at 25° C. using a circulating water bath. CO2 was excluded from the vessel prior to and during the titrations using a small positive pressure of Ar that was passed through a solution of 30 wt % KOH. Carbonate-free KOH (˜0.1 M) was prepared by dissolving KOH pellets (semiconductor grade, 99.99% trace metals basis) in freshly boiled water (≥18 MΩ-cm) and was standardized by potentiometric titration against potassium hydrogen phthalate. Hydrochloric acid (0.1 M) was standardized against freshly prepared KOH. Titration solutions were maintained at a constant ionic strength of 0.1 M using KCl (≥99.5%) and were equilibrated for 15 minutes prior to the addition of titrant. Before every titration, the electrode was calibrated in terms of hydrogen ion concentration by titrating a solution of standardized HCl (5 mM) containing supporting electrolyte (95 mM) with standardized KOH (2 mL). Data within the pH ranges of 2.5-3.2 and 10.8-11.2 were analyzed using software to obtain the standard electrode potential (E0) and slope factor. Owing to the sharp rise in pH at the titration endpoint (pH 3.2-10.8), data obtained in this region are subject to significant error and were therefore excluded from the calibration analysis. A pKw value of 13.78 was taken from the literature (Baes, C. F.; Mesmer, R. E. The Hydrolysis of Cations; Wiley: New York, 1976).
# (§2) ICP standards of calcium, strontium, and barium in dilute HNO3 were employed in the titrations. The exact amount of HNO3 was determined by potentiometric titration of each metal solution (1 mL), diluted to a known volume with H2O, with standardized KOH to pH ˜7; under these conditions, no precipitation of metal hydroxide species was observed. The data were analyzed using a Gran plot (Gran, G. Analyst 1952, 77, 661-671). Stability constants were measured for the alkaline earth complexes of macropa^2− and macropaquin^2− by adding standardized KOH to a solution (20 mL) containing ligand (0.02 mmol), metal (0.02 mmol), 1 M KCl (1.9 mmol), and a portion of 0.1 M HCl sufficient to bring the total acid content (HCl+HNO3) to 0.1 mmol. The titration method employed either a 0.1 mV/min or 0.2 mV/min drift limit with a maximum wait time of 300 seconds between addition of base and measurement. […] Data points (˜30-90) obtained over the pH ranges of 2.5-10.5 (Ba-macropa), 2.8-10.5 (Sr-macropa), 4.0-10.5 (Ca-macropa), 2.7-11.3 (Ba-macropaquin), and 4.0-11.3 (Sr- and Ca-macropaquin) were included in the refinements. These pH ranges reflect the portion of the titration curves in which metal binding is occurring. Using the protonation constants measured for each ligand, the stability constants (Equations 2-4, below) were calculated from the average of at least 3 independent titrations using appropriate software. Proton concentration was admitted as a refineable parameter. Ligand (L) concentration was taken as the averaged value obtained from the refinements of ligand-only titrations. The errors given for the stability constants correspond to one standard deviation.
# (§3) The alkaline earth stability constants for macroquin-SO3^4− were determined using a system in which each ligand titration was paired with a ligand-metal titration. These pairwise titrations permitted the ligand concentration for the metal-ligand titrations to be known with reasonable certainty from the refinement of the ligand-only titrations. Immediately following a titration of the free ligand with HCl, metal ion (0.013 mmol) was added and the solution was equilibrated under Ar for 15 minutes before the addition of standardized KOH. The same titration method was employed as described above for macropa^2− and macropaquin^2−. […]
# [2] = Thermodynamic stability constants of Sr^2+ complexes by pH-potentiometry; format: binding; conditions: I = 0.1M KCl; for pSr (−log [M^2+]free): [M^2+] = 10^−6M, [L] = 10^−5M, pH 7.4; for log K′Sr (conditional stability constant): pH 7.4, 25° C., calculated from protonation and stability constants
# Experimental: as §1, §2, §3
# [3] = Protonation constants of the ligands by pH-potentiometric titration; format: physicochemical; conditions: for log Ka1 / log Ka2 / log Ka3 / log Ka4: pH-potentiometry, 25° C., I = 0.1M KCl; for occurrence of the fully deprotonated ligand in solution: ligand speciation versus pH
# Experimental: as §1
# Stock solutions of macropa and macropaquin were prepared in H2O. […] The exact ligand concentrations were determined from the potentiometric titration curves with KOH. Protonation equilibria of macropa^2− and macropaquin^2− were determined by adding standardized KOH to a solution (20 mL) containing ligand (˜0.02 mmol), 0.1 M HCl (0.1 mmol), and 1 M KCl (1.9 mmol). The titration method employed a 0.1 mV/min drift limit with a maximum wait time of 90 sec between addition of base and measurement. At least 70 data points were collected over the pH range of 2.5-10.5 (macropa) or 2.5-11.3 (macropaquin). The protonation constants, defined in Eq. 1, were calculated from the average of at least 4 independent titrations using the appropriate software.
# Both ligand (L) and proton concentrations were admitted as refineable parameters. The errors given for the protonation constants correspond to one standard deviation. The protonation constants measured for macropa^2− were consistent with those previously reported (Roca-Sabio et al., 2009, supra); log Ka5 was not able to be determined under the conditions employed here. Protonation equilibria of macroquin-SO3^4− were determined by titrating standardized HCl (˜5.19 mL) into a solution (62.5 mL) containing ligand (˜0.013 mmol, 10.4 mg), KOH (0.25 mmol), and 1 M KCl (6 mmol). The same titration method was employed as described above for the other two ligands. At least 90 data points over the pH range of 4.0-10.8 were included in the refinement; no additional protonation constants could be refined when data from pH 2.5-3.99 were included. The protonation constants were calculated from the average of 15 independent titrations.
Compound,pCa (−log [M^2+]free) [1],log K′Ca (conditional stability constant) [1],pSr (−log [M^2+]free) ([2]; 25° C.),log K′Sr (conditional stability constant) [2],"overall basicity of the ligand, sum of log Ka values [3]",log Ka1 [3],log Ka2 [3],log Ka3 [3],log Ka4 [3],log KCaL [1],"log KSrHL ([2]; pH-potentiometry, 25° C.)","log KSrL ([2]; pH-potentiometry, 25° C.)",occurrence of the fully deprotonated ligand in solution [3],log KCaHL [1],further results
"O=C(O)CN1CCN(CC(=O)O)CCN(CC(=O)O)CCN(CC(=O)O)CC1 [DOTA, reference compound]",11.29,10.34,9.30,8.35,,,,,,,,,,,
"O=C(O)c1cccc(CN2CCOCCOCCN(Cc3cccc(C(=O)O)n3)CCOCCOCC2)n1 [macropa, 6,6-((1,4,10,13-tetraoxa-7,16-diazacyclooctadecane-7,16-diyl)bis(methylene))dipicolinic acid]",6.54,5.42,10.02,9.07,19.99,7.41,6.899,3.23(1),2.45(5),5.79(1),3.35(8),9.442(4),,,fraction of ligand fully deprotonated (L^2−) ([3]; pH 7.4): 43%; log Ka1 ([3]; listed as macropa^2−): 7.41(1); log Ka2 ([3]; listed as macropa^2−): 6.899(3)
"O=C(O)c1cccc(CN2CCOCCOCCN(Cc3ccc4cccc(O)c4n3)CCOCCOCC2)n1 [macropaquin, 6-((16-((8-hydroxyquinolin-2-yl)methyl)-1,4,10,13-tetraoxa-7,16-diazacyclooctadecan-7-yl)methyl)picolinic acid]",6.04,3.94,8.50,7.54,27.69,10.33,7.15,6.97,3.24(4),5.90(4),8.92(2),9.19(5),do not exist in solution below pH 8,8.59(2),fraction of ligand as monoprotonated species HL^− ([3]; pH 7.4): 56%; log Ka1 ([3]; listed as macropaquin^2−): 10.33(4); log Ka2 ([3]; listed as macropaquin^2−): 7.15(3); log Ka3 ([3]; listed as macropaquin^2−): 6.97(2)
"O=S(=O)(O)c1ccc(O)c2nc(CN3CCOCCOCCN(Cc4ccc5c(S(=O)(=O)O)ccc(O)c5n4)CCOCCOCC3)ccc12 [macroquin-SO3, 2,2′-((1,4,10,13-tetraoxa-7,16-diazacyclooctadecane-7,16-diyl)bis(methylene))bis(8-hydroxyquinoline-5-sulfonic acid)]",6.01,3.19,6.70,5.64,32.14,9.34,9.43,6.75,6.62,6.04(8),8.34(4),8.62(2),do not exist in solution below pH 8,8.60(4),"fraction of ligand present as H2L^2− ([3]; pH 7.4): 78%; log Ka1 ([3]; listed as macroquin-SO3^4−): 9.34(4); log Ka2 ([3]; listed as macroquin-SO3^4−): 9.43(1); log Ka3 ([3]; listed as macroquin-SO3^4−): 6.75(4); log Ka4 ([3]; listed as macroquin-SO3^4−): 6.62(4); log KSrH2L ([2]; pH-potentiometry, 25° C.): 6.920(3)"
